Test results taken from patent US9675615B2, “2,3-dihydroquinazolin-4(1H)-one derivatives for use in the treatment of viral infections” (priority 2012, dated 2017).
Read-outs that look alike come from different tables or passages of the source.

Experiments:
[1] = test system: recombinant Ebolavirus that encodes green fluorescent protein; test: microbe, parasite or virus in culture; type: cell-based; settings: read-out: IC50 (concentration that results in 50% inhibition of infection)
Ebolavirus = settings: cited from earlier work
filoviruses = settings: cited from earlier work

Compound	IC50 ([1]; Orthoebolavirus, HeLa) [µM]	further results
CSc1ccc(C2Nc3ccccc3C(=O)N2c2ccccc2)s1 (centres unmarked) [Compound 17, 2-(5-(Methylthio)thiophen-2-yl)-3-phenyl-2,3-dihydroquinazolin-4(1H)-one]	7.4	–
O=C1c2ccccc2NC(c2ccc(-c3cccs3)s2)N1c1ccccc1 (centres unmarked) [Compound 18, 2-([2,2′-Bithiophen]-5-yl)-3-phenyl-2,3-dihydroquinazolin-4(1H)-one]	4.7	–
Cc1nc(-c2ccc(C3Nc4ccccc4C(=O)N3c3ccccc3)s2)cs1 (centres unmarked) [Compound 21, 2-(5-(2-Methylthiazol-4-yl)thiophen-2-yl)-3-phenyl-2,3-dihydroquinazolin-4(1H)-one]	2.3	–
O=C1c2ccccc2NC(c2ccc(-c3ccco3)s2)N1c1ccccc1 (centres unmarked) [Compound 20, 2-(5-(Furan-2-yl)thiophen-2-yl)-3-phenyl-2,3-dihydroquinazolin-4(1H)-one]	5.4	–
CC(Cc1ccc(O)c(O)c1)C(C)Cc1ccc(O)c(O)c1 (centres unmarked) [NDGA]	–	effect on Ebolavirus infectivity (Ebolavirus): loss of infectivity
NC(=O)c1ncn([C@@H]2O[C@H](CO)[C@@H](O)[C@H]2O)n1 [ribavirin]	–	efficacy against filoviruses (filoviruses): ineffective
C[C@H]1CCC/C=C/[C@@H]2C[C@H](O)C[C@H]2[C@H](O)/C=C/C(=O)O1 [Brefeldin A]	–	effect on Ebolavirus infectivity (Ebolavirus): loss of infectivity
O=C1c2ccccc2NC(c2ccc(-c3ccccc3)s2)N1c1ccccc1 (centres unmarked) [Compound 13, 3-Phenyl-2-(5-phenylthiophen-2-yl)-2,3-dihydroquinazolin-4(1H)-one]	4.2	–
CCc1ccc(C2Nc3ccccc3C(=O)N2c2ccccc2)s1 (centres unmarked) [Compound 7, 2-(5-Ethylthiophen-2-yl)-3-phenyl-2,3-dihydroquinazolin-4(1H)-one]	11	–
Cc1ccc(C2Nc3ccccc3C(=O)N2c2ccccc2)s1 (centres unmarked) [Retro-2^cycl, reference compound]	–	IC50 [1]: 42.5 µM
O=C1c2ccccc2NC(c2ccc(-c3ccccn3)s2)N1c1ccccc1 (centres unmarked) [Compound 19, 3-Phenyl-2-(5-(pyridin-2-yl)thiophen-2-yl)-2,3-dihydroquinazolin-4(1H)-one]	5.6	–
